Measured values reported in patent US20240294489A1 (Captor Therapeutics S.A., priority 2020, published 2024).

What was measured:
Assay type in all cases: cell-based
[1] = test system: MOLM-1; experiment: Cell viability, additional cell lines (CellTiter-Glo), MOLM-1; conditions: MOLM-1, 72 h
Method: (§1) Tumor cells are grown at 37° C. in a humidified atmosphere with 5% CO2 in RPMI 1640 medium, supplemented with 10% (v/v) fetal calf serum and 50 μg/ml gentamicin for up to 20 passages, and are passaged once or twice weekly.
(§2) Cells are harvested from exponential phase cultures, counted and plated in 96 well flat-bottom microtiter plates at a cell density depending on the cell line's growth rate (4,000-20,000 cells/well depending on the cell line's growth rate, up to 60,000 for hematological cancer cell lines) in RPMI 1640 medium supplemented with 10% (v/v) fetal calf serum and 50 μg/ml gentamicin (140 μl/well). Cultures are incubated at 37° C. and 5% CO2 in a humidified atmosphere. After 24 h, 10 μl of test compounds or control medium are added and left on the cells for another 72 h. Compounds are serially diluted in DMSO, transferred in cell culture medium, and added to the assay plates by using a Tecan Freedom EVO 200 robotic platform. The DMSO concentration is kept constant at 0.3% v/v across the assay plate. Viability of cells is quantified by the CellTiter-Glo® cell viability assay (Promega G8462). After incubation of cells, 100 μl of CellTiter-Glo® One Solution Assay reagent are added to each well. Plates are shaken for 2 minutes to induce cell lysis and incubated for 20 minutes prior to reading luminescence (LU) by using the EnVision® Xcite multilabel plate reader (Perkin Elmer). […]

[2] = test system: PL-21; experiment: Cell viability, additional cell lines (CellTiter-Glo), PL-21; conditions: PL-21, 72 h; read-out: Absolute IC50
Method: as §1, §2

[3] = test system: KG-1; experiment: Cell viability, additional cell lines (CellTiter-Glo), KG-1; conditions: Homo sapiens, KG-1, 72 h
Method: as §1, §2

[4] = test system: Kasumi-1; experiment: Cell viability, additional cell lines (CellTiter-Glo), Kasumi-1; conditions: Homo sapiens; Kasumi-1, 72 h; read-out: Absolute IC50
Method: as §1, §2

[5] = test system: SU-DHL-1; experiment: Cell viability, additional cell lines (CellTiter-Glo), SU-DHL-1; conditions: Homo sapiens, SU-DHL-1, 72 h; read-out: Absolute IC50
Method: as §1, §2

[6] = test system: MOLP-2; experiment: Cell viability, additional cell lines (CellTiter-Glo), MOLP-2; conditions: MOLP-2, 72 h
Method: as §1, §2

[7] = test system: TMD8; experiment: Cell viability, additional cell lines (CellTiter-Glo), TMD8; conditions: Homo sapiens, TMD8, 72 h; read-out: Absolute IC50
Method: as §1, §2

[8] = biological target: T1, GSPT1 (Homo sapiens, UniProt P15170+Q96SW2); experiment: GSPT1 degradation assay, Hep3B cell line; conditions: HEP3B cells, 24 h, read-out: % of GSPT1 protein reduction
T1 construct: GSPT1 degradation in the Hep3B cell line was investigated; endogenous in cells; host or cells: Hep3B
Outline: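 Hep3B cells treated 24 h at 37 °C with compounds across a concentration range (0.25% DMSO final). GSPT1 level measured by western blot densitometry, normalized to loading control and expressed as % of DMSO control.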

[9] = biological target: T2, SALL4 (Homo sapiens, UniProt Q96SW2+Q9UJQ4); experiment: SALL4 degradation in the Kelly cell line, time course; conditions: Kelly cells, 0.1 μM, 3, 6, 12, 24, 48 and 72 h, FIG. 2
T2 construct: SALL4 degradation in the Kelly cell line was investigated; endogenous in cells; host or cells: Kelly
Method: Kelly cells were maintained in RPMI-1640 medium, supplemented with penicillin/streptomycin and 10% Fetal Bovine Serum (FBS). Cells were seeded on 6- or 12-well plates, and the compounds to be tested were added at the desired concentration range. Final DMSO concentration was 0.25%. After incubation (37° C., 5% CO2) for a specified period of time, cells were harvested, washed and cell lysates were prepared using RIPA lysis buffer. The amount of protein was determined via BCA assay, and the appropriate quantity was then loaded on the precast gel for the protein separation. After primary and secondary Ab staining, the membranes were washed and signals developed. The densitometry analysis was implemented to obtain the numeric values used later in the protein level evaluation process.

[10] = test system: NCI-H929; experiment: Cell viability, additional cell lines (CellTiter-Glo), NCI-H929; conditions: Homo sapiens, NCI-H929, 72 h; read-out: Absolute IC50
Method: as §1, §2

[11] = test system: MOLM-6; experiment: Cell viability, additional cell lines (CellTiter-Glo), MOLM-6; conditions: MOLM-6, 72 h
Method: as §1, §2

[12] = test system: U-266; experiment: Cell viability, additional cell lines (CellTiter-Glo), U-266; conditions: Homo sapiens, U-266, 72 h; read-out: Absolute IC50
Method: as §1, §2

[13] = test system: U-937; experiment: Cell viability, additional cell lines (CellTiter-Glo), U-937; conditions: Homo sapiens, U-937, 72 h; read-out: Absolute IC50
Method: as §1, §2

[14] = test system: IM-9; experiment: Cell viability, additional cell lines (CellTiter-Glo), IM-9; conditions: Homo sapiens, IM-9, 72 h; read-out: Absolute IC50
Method: as §1, §2

[15] = 9.5 μM, read-out: Test/Control viability at 9.5 μM

T1 sequence (P15170 whole entry): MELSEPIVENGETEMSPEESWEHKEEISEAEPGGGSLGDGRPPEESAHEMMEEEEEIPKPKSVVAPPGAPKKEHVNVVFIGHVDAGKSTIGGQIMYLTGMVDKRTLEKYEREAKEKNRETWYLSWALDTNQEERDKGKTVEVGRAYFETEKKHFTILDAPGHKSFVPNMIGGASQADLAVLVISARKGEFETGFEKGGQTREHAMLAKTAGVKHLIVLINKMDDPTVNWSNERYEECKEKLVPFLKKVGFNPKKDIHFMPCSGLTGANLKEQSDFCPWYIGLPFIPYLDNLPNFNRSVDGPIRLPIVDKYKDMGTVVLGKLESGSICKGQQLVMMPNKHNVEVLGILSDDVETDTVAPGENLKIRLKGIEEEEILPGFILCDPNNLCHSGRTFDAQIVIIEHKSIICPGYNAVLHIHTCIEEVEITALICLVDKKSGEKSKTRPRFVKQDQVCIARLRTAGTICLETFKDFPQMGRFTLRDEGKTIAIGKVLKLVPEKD
T1 sequence (Q96SW2 whole entry): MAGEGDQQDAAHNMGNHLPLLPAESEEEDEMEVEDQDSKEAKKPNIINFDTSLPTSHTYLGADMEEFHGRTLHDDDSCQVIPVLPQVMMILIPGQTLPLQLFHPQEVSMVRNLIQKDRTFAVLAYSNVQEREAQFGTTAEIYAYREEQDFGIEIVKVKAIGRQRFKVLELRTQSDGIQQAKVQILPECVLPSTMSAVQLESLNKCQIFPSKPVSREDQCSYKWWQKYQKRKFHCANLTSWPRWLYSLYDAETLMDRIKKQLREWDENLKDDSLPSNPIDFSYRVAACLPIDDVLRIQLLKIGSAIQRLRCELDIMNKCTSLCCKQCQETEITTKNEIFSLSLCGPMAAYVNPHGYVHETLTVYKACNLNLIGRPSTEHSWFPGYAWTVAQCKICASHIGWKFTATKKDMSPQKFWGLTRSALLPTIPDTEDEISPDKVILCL
T1 sequence (Q16531 whole entry partner): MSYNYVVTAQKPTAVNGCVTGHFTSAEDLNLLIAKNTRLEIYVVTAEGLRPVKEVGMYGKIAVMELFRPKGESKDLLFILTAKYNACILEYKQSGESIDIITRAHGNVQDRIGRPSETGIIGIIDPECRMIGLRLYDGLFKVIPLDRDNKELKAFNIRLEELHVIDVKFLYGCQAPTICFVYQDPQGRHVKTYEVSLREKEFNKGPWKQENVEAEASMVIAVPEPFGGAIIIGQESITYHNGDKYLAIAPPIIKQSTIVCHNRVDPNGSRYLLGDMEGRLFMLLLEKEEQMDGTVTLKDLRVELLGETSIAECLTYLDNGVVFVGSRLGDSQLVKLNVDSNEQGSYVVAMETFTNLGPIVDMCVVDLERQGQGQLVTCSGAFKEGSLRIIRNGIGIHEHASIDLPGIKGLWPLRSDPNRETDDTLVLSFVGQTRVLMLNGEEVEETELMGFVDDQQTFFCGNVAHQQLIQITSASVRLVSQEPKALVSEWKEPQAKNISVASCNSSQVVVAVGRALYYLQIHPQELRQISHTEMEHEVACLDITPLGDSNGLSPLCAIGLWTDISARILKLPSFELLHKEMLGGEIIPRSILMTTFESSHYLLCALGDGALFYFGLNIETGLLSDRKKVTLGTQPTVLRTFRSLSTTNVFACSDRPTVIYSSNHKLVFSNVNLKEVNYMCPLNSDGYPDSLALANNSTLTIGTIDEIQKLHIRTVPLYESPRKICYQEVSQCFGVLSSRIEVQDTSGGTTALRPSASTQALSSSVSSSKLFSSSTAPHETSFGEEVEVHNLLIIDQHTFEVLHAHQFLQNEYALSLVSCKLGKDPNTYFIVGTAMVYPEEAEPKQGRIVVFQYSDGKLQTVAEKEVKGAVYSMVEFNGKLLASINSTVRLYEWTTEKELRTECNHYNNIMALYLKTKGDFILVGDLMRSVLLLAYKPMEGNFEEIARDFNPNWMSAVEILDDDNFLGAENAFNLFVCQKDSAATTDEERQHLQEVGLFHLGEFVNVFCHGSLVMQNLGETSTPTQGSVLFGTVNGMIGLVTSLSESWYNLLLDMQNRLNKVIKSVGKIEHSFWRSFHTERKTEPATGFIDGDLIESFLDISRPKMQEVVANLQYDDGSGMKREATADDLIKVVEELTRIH
T2 sequence (Q9UJQ4 whole entry): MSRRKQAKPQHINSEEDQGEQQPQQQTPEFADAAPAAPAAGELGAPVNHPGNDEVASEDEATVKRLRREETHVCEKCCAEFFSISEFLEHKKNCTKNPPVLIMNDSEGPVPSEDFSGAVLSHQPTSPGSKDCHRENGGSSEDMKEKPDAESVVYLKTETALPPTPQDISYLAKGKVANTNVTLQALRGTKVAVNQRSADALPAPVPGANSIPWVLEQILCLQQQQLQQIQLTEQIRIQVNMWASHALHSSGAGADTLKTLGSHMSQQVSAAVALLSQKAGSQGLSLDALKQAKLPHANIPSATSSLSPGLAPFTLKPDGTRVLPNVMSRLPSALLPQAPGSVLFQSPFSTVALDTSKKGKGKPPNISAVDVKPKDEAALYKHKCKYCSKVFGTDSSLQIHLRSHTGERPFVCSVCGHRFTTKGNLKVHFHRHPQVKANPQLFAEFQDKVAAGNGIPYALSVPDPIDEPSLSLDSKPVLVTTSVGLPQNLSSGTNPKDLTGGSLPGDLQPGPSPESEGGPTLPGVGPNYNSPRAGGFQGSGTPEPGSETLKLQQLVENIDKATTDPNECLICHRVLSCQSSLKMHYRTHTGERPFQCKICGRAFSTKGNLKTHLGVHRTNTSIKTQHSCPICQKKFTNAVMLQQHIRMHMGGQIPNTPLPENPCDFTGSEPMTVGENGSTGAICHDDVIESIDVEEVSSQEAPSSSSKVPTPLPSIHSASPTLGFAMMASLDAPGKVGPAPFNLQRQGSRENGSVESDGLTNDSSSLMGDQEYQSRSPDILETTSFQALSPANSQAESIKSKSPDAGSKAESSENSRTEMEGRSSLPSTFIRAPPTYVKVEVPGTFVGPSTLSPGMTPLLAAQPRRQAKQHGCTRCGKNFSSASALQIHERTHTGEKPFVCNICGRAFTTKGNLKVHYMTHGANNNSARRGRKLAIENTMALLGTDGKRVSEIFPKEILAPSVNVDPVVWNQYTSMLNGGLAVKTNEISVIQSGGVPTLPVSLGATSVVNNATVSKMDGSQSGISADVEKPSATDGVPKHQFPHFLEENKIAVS
T2 sequence (Q96SW2 whole entry): as the sequence (Q96SW2 whole entry) above
T2 sequence (Q16531 whole entry partner): as the sequence (Q16531 whole entry partner) above

`NCc1ccc2c(c1)CN(C1CCC(=O)NC1=O)C2=O` (stereo not shown) [Compound 1, 3-(5-(aminomethyl)-1-oxoisoindolin-2-yl)piperidine-2,6-dione] was tested, and the viability at 9.5 µM [1, 15] was at most 30%, the IC50 ([1]; read-out: Absolute IC50) was at most 0.1 µM and the IC50 [2] was over 30 µM. The IC50 ([3]; read-out: Absolute IC50) was at most 0.1 µM, the viability at 9.5 µM [3, 15] was at most 30% and the IC50 [4] was over 30 µM. It also gave an IC50 [5] of over 30 µM, a viability at 9.5 µM [6, 15] of at most 60% and an IC50 ([6]; read-out: Absolute IC50) of 0.1 to 1 µM. The IC50 [7] was over 30 µM, the inhibition at 1 µM ([8]; 1 uM) was 80 to 100% and the inhibition at 10 µM ([8]; 10 uM) was 80 to 100%. For the same molecule, the “SALL4 degradation time course” value [9] was “more rapidly and effectively than lenalidomide”, the IC50 [10] was over 30 µM and the viability at 9.5 µM [11, 15] was at most 60%. For the same molecule, the IC50 ([11]; read-out: Absolute IC50) was 0.1 to 1 µM, the IC50 [12] was over 30 µM and the IC50 [13] was over 30 µM. For the same molecule, the IC50 [14] was over 30 µM.
